Key:
[1] = biological target: T1, Nitric oxide synthase, inducible (Mus musculus, UniProt P29477); parameters: species or system Escherichia coli;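 note: inhibition of iNOS enzyme activity measured with L-arginine as substrate; in other assays of this panel Not Active means under 50% inhibition at 10 µM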
T1 sequence (P29477 whole entry): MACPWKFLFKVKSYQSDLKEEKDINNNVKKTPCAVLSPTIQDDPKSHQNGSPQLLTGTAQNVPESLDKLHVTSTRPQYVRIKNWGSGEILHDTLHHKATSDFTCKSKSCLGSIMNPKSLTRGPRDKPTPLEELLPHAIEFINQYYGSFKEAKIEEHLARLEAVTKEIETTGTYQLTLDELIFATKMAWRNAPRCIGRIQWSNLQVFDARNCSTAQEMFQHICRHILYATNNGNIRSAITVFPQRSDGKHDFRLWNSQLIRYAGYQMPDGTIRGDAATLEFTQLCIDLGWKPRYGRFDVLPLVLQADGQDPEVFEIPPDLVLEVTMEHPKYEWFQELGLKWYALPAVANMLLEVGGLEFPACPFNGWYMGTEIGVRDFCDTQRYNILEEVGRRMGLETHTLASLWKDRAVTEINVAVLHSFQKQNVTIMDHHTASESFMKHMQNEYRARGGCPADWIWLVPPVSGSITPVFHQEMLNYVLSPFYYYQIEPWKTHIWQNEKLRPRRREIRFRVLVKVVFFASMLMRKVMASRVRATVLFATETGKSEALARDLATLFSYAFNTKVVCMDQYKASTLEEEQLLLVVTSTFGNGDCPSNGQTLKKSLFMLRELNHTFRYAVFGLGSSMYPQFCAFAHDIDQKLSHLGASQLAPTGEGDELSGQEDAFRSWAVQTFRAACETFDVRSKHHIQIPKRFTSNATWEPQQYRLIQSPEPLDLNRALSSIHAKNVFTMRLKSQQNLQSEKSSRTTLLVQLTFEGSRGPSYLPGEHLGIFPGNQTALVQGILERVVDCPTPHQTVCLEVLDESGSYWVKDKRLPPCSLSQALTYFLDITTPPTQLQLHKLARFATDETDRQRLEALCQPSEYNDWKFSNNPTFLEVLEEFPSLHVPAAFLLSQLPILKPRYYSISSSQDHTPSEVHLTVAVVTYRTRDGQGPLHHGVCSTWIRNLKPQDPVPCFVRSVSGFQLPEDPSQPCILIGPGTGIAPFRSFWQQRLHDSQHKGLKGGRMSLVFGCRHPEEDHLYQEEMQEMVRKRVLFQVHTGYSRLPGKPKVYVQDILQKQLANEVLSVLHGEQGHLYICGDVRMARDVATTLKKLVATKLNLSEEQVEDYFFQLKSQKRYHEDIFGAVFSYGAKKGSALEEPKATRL

[2] = DRUGMATRIX: GABAA, Muscimol, Central radioligand binding (ligand: [3H] Muscimol); format: cell membranes, Rattus norvegicus, Wistar, Brain, Membrane; settings: Not Active = under 50% inhibition at 10 µM
[3] = DRUGMATRIX: Phorbol Ester radioligand binding (ligand: [3H] PDBu); format: cell membranes, Mus musculus, ICR, Brain, Membrane; settings: Not Active = under 50% inhibition at 10 µM
[4] = biological target: Kappa-type opioid receptor (Homo sapiens, UniProt P41145); test: DRUGMATRIX: Opiate kappa (OP2, KOP) radioligand binding (ligand: [3H] Diprenorphine); format: cell membranes, HEK293, Membrane; settings: hek293; Not Active = under 50% inhibition at 10 µM
[5] = DRUGMATRIX: Calcium Channel Type L, Phenylalkylamine radioligand binding (ligand: [3H] (-)-Desmethoxyverapamil (D-888)); format: cell membranes, Rattus norvegicus, Wistar, Brain, Membrane; settings: Not Active = under 50% inhibition at 10 µM
[6] = biological target: T2, Receptor-type tyrosine-protein phosphatase C (Homo sapiens, UniProt P08575); parameters: species or system Escherichia coli;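 note: inhibition of CD45 enzyme activity measured using DiFMUP as substrate; in other assays of this panel Not Active means under 50% inhibition at 10 µM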
T2 sequence (P08575 whole entry): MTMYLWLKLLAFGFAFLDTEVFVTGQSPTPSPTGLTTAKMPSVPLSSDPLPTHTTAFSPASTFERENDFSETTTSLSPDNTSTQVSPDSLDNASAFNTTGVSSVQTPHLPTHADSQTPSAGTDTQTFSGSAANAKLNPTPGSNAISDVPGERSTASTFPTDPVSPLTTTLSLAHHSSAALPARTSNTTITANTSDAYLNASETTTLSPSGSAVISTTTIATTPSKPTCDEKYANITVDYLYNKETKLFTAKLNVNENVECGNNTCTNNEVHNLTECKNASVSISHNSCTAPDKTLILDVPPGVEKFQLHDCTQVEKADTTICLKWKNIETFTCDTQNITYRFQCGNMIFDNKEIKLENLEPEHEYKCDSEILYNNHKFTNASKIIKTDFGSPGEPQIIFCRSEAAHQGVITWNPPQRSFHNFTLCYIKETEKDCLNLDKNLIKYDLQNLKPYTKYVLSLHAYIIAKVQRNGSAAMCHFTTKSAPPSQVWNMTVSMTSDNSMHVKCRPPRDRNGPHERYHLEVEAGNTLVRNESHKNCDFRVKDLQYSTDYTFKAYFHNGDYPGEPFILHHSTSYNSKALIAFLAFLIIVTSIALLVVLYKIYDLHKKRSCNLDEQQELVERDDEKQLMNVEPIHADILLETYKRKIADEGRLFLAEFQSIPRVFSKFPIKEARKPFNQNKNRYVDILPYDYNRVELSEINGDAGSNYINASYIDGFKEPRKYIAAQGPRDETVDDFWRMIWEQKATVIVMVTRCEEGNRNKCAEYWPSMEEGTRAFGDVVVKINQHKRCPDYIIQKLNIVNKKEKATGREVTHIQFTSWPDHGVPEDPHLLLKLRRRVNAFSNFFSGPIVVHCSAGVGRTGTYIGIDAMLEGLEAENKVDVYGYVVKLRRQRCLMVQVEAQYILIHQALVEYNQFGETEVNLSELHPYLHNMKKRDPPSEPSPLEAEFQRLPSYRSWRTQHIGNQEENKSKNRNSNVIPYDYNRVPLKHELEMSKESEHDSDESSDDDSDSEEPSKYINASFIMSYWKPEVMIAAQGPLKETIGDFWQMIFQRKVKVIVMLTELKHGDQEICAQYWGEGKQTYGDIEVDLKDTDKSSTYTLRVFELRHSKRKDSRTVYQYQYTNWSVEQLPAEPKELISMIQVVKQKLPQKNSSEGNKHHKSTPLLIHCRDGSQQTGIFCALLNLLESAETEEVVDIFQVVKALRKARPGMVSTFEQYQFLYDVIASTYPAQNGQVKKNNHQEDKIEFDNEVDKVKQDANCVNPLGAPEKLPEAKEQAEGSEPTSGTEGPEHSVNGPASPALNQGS

[7] = biological target: Mitogen-activated protein kinase 3 (Homo sapiens, UniProt P27361); test: DRUGMATRIX: Protein Serine/Threonine Kinase, ERK1 enzyme inhibition (substrate: Myelin Basic Protein); parameters: species or system Escherichia coli; settings: Not Active = under 50% inhibition at 10 µM
[8] = DRUGMATRIX: Sodium/nucleoside co-transporter radioligand binding (ligand: nitrobenzylthioinosine); format: cell membranes, Cavia porcellus, Dunkin-Hartley, Cerebral cortex, Membrane; settings: Not Active = under 50% inhibition at 10 µM

Mitogen-activated protein kinase 3, sequence (P27361 whole entry): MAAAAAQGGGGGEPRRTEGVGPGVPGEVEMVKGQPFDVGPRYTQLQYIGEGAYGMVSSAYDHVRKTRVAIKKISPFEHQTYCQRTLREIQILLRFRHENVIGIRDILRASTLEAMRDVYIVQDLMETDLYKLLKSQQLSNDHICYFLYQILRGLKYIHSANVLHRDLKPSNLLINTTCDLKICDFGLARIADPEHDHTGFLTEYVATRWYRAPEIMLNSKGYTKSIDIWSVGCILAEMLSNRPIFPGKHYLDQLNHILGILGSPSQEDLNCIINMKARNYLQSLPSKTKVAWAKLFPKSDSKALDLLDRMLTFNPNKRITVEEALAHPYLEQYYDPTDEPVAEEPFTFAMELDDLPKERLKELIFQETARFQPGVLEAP
Kappa-type opioid receptor, sequence (P41145 whole entry): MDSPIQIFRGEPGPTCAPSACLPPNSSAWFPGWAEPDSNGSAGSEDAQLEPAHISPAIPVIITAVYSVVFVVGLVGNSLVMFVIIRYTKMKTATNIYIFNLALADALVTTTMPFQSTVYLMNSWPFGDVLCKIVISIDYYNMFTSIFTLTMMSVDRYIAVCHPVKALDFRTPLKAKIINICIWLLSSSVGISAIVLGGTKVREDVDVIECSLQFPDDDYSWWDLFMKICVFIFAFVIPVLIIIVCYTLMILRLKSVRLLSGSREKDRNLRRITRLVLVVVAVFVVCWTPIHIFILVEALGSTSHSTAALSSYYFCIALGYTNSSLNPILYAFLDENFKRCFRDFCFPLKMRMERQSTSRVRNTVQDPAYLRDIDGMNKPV

CCC1=C[C@@H]2CN(C1)Cc1c([nH]c3ccccc13)[C@@](C(=O)OC)(c1cc3c(cc1OC)N(C)[C@H]1[C@@](O)(C(=O)OC)[C@H](OC(C)=O)[C@]4(CC)C=CCN5CC[C@]31[C@@H]54)C2 [VINORELBINE]
Not Active: IC50 [1] | IC50 [2] | Ki [2] | IC50 [3] | Ki [3] | IC50 [4] | IC50 [5] | Ki [5] | IC50 [6] | IC50 [7] | IC50 [8] | Ki [8]

Reference: ChEMBL document CHEMBL1909046, “DrugMatrix in vitro pharmacology data”
